pIC50: −log10 of the molar value.
Legend:
[1] = molecular target: K-562 cell line (Homo sapiens); conditions: k562
[2] = molecular target: Cyclin-dependent kinase 1/cyclin B (Homo sapiens, UniProt P06493); assay: Inhibitory concentration against Cyclin-dependent kinase 1-cyclin B; format: protein-complex assay

SMILES	IC50 [1]	pIC50 [2]	pIC50 (K-562 (Homo sapiens))
COc1ccc(CNc2ncnc3c2ncn3C(C)C)cc1	> 167 uM dm**-3	5.42	
CC(C)n1cnc2c(NCc3ccc(O)cc3)ncnc21	> 167 uM dm**-3	5.40	
CC(C)n1cnc2c(NCc3ccccc3)ncnc21	113 uM dm**-3	5.44	
CC(C)n1cnc2c(NCc3ccccc3Br)ncnc21		4.64	4.31
CCCCCNc1ncnc2c(C(C)C)n[nH]c12		5.92	4.21
CC(C)c1n[nH]c2c(NCc3ccccc3Br)ncnc12		4.96	4.54
COc1ccc(CNc2ncnc3c(C(C)C)n[nH]c23)cc1O		5.96	4.59
CC(C)c1n[nH]c2c(NCc3ccccc3O)ncnc12			4.27
CC(C)c1n[nH]c2c(NCc3ccccc3)ncnc12		5.92	4.18
CC(C)=CCNc1ncnc2c(C(C)C)n[nH]c12	152 uM dm**-3		
COc1ccc(CNc2ncnc3c(C(C)C)n[nH]c23)cc1			4.34
CC(C)c1n[nH]c2c(NCc3ccc(O)cc3)ncnc12	112 uM dm**-3		
CC(C)n1cnc2c(NCc3cccc(O)c3)ncnc21	> 167 uM dm**-3	5.51	
CC(C)c1n[nH]c2c(Nc3cccc(Cl)c3)ncnc12		6.05	4.74
CC(C)n1cnc2c(Nc3cccc(Cl)c3)ncnc21		5.23	4.27
CC(C)c1n[nH]c2c(NCc3cccc(O)c3)ncnc12		5.77	4.06
CCCCCNc1ncnc2c1ncn2C(C)C	144 uM dm**-3	5.16	
CC(C)c1n[nH]c2c(NCc3ccco3)ncnc12	> 167 uM dm**-3	5.60	
CC(C)n1cnc2c(NCc3ccco3)ncnc21	> 167 uM dm**-3	5.04	
CC(C)=CCNc1ncnc2c1ncn2C(C)C	> 167 uM dm**-3	4.77	
COc1ccc(CNc2ncnc3c2ncn3C(C)C)cc1O	104 uM dm**-3	5.35	
CC(C)n1cnc2c(NCc3ccccc3O)ncnc21	125 uM dm**-3	5.36	

From ChEMBL document CHEMBL1136198, “Pyrazolo[4,3-d]pyrimidines as new generation of cyclin-dependent kinase inhibitors” (Bioorg Med Chem Lett, 2003)
